Source: patent US20250129103A1, “METHODS FOR TREATMENT OF CANCER” (Frontier Medicines Corporation, priority 2022, published 2025)
In brackets after ≈: the same amount, converted by molar mass.

Experiments:
[1] = target: KRAS G12C (GMPPNP-loaded) and cRAF (Ras-binding domain) interaction (Homo sapiens (Human), UniProt P01116, C118S/C51S/C80L/G12C); assay: Inhibition of KRAS G12C and cRAF binding (AlphaScreen); settings: KRAS G12C loaded with GMPPNP, cRaf RBD, 2 hours preincubation; read-out: Raf-1 RBD K-Ras IC50
Chain of KRAS G12C (GMPPNP-loaded) and cRAF (Ras-binding domain) interaction (P01116 other isoform, or with tags, fused parts or gaps G12C/C51S/C80L/C118S): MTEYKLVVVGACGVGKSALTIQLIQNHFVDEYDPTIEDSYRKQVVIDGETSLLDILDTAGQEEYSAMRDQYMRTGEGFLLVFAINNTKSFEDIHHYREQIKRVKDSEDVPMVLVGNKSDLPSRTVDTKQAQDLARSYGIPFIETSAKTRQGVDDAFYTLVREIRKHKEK
Outline: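 GMPPNP-loaded KRAS G12C in 25 mM Hepes pH 7.4, 150 mM NaCl, 5 mM MgCl2, 0.01% Triton X-100, 10 μM GMPPNP, 2% DMSO, preincubated with compound 2 h at room temperature. cRAF RBD plus AlphaScreen beads then added for 60-90 min; signal read at 570 nm.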

[2] = target: KRAS G12C (GMPPNP-loaded) and PI3Ka (Ras-binding domain) interaction (Homo sapiens (Human), UniProt P01116, C118S/C51S/C80L/G12C); assay: Inhibition of KRAS G12C and PI3Ka binding (AlphaScreen); settings: KRAS G12C loaded with GMPPNP, PI3Ka RBD, 2 hours preincubation; read-out: PI3K RBD K-Ras IC50
Chain of KRAS G12C (GMPPNP-loaded) and PI3Ka (Ras-binding domain) interaction (P01116 other isoform, or with tags, fused parts or gaps G12C/C51S/C80L/C118S): as above
Protocol: The AlphaScreen technology was used to determine IC50S for compound inhibition of KRAS G12C (present as the Cys-light (C51S, C80L and C118S), truncated version comprising amino acids 1-169) and PI3Ka interaction. Compounds were diluted in 100% DMSO and each compound concentration was spotted at 200 nl/well onto low volume, white 384 well plates. The KRAS G12C contained a biotin-AviTag and the PI3Ka, as Ras-binding domain (amino acids 157-300, RBD), was His-tagged. KRAS G12C was preloaded with the GTP analogue Guanosine 5′-[β,γ-imido]triphosphate (GMPPNP). The KRAS G12C was diluted in 25 mM Hepes, pH 7.4, 150 mM NaCl, 5 mM MgCl2, 0.01% TritonX-100 and 10 μM GMPPNP and added at 10 ul/well to compound-spotted plates resulting in a DMSO concentration of 2%. Plates were incubated for 2 hours. A mixture of RBD and the AlphaScreen streptavidin donor and nickel chelate acceptor beads diluted in 25 mM Hepes, pH 7.4, 150 mM NaCl, 5 mM MgCl2, 0.01% TritonX-100 and 2% DMSO was then added at 10 ul/well and incubated for 60-90 minutes before the samples were read for emission at 570 nm after excitation of the donor beads at 680 nm. All incubations were performed at room temperature. The final top compound concentration was 50 μM with 1:3 titrations for 10-point dose response curves. Final assay conditions were 1.5 nM KRAS G12C, 100 nM RBD, 1.25 ug/ml of AlphaScreen donor beads and 10 μg/ml AlphaLISA acceptor beads. IC50s were determined using nonlinear regression fit of [inhibitor] vs. response (4 parameters). […]

[3] = Determination of logD (1-octanol / phosphate buffer pH 7.4); type: physicochemical; settings: 1-octanol/phosphate buffer, pH 7.4, pH 7.4, 1-octanol/phosphate buffer; read-out: Log D, pH 7.4
Outline: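 Shake-flask partition between 1-octanol and 100 mM phosphate buffer pH 7.4, each phase presaturated with the other overnight. Tubes shaken 1 h at 800 rpm, room temperature, then centrifuged. Both phases quantified by LCMS and logD calculated from the ratio.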

[4] = Determination of kinetic solubility (pH 7.4); type: physicochemical; settings: phosphate buffer, pH 7.4, aqueous buffer, kinetic from dmso stock, 50 mM phosphate buffer pH 7.4, read-out: Ksol, pH 7.4
Outline: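 Sample mixed with 50 mM phosphate buffer, pH 7.4, vortexed, then shaken 2 h at room temperature and centrifuged. Filtrate analysed by HPLC-UV and LC-MS/MS, with solubility read from peak areas against a standard calibration curve.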

| Compound | IC50 [1] | IC50 [2] | logD [3] | solubility kinetic at 2 h [4] |
| --- | --- | --- | --- | --- |
| N#CC[C@H]1CN(c2nc(OC[C@@]34CCCN3C[C@H](F)C4)nc3c(F)c(-c4cccc(Cl)c4C4CC4)ncc23)CCN1C(=O)/C=C/CN1[C@@H]2CC[C@H]1COC2 [Compound 100, 2-((S)-1-((E)-4-((1R,5S)-3-oxa-8-azabicyclo[3.2.1]octan-8-yl)but-2-enoyl)-4-(7-(3-chloro-2-cyclopropylphenyl)-8-fluoro-2-(((2R,7aS)-2-fluorotetrahydro-1H-pyrrolizin-7a(5H)-yl)methoxy)pyrido[4,3-d]pyrimidin-4-yl)piperazin-2-yl)acetonitrile] | < 10 nM | < 10 nM |  |  |
| CN1CCC1/C=C/C(=O)N1CCN(c2nc(OC[C@@]34CCCN3C[C@H](F)C4)nc3c(F)c(-c4cccc5cccc(Cl)c45)ncc23)C[C@@H]1CC#N (some centres unmarked) [Compound 51] | 10 to 100 nM | 10 to 100 nM |  |  |
| CC(F)(F)c1noc(/C=C/C(=O)N2CCN(c3nc(OCC45CCCN4CCC5)nc4c(F)c(-c5cccc6cccc(Cl)c56)ncc34)C[C@@H]2CC#N)n1 [Example 13, (S,E)-2-(4-(7-(8-chloronaphthalen-1-yl)-8-fluoro-2-((tetrahydro-1H-pyrrolizin-7a(5H)-yl)methoxy)pyrido[4,3-d]pyrimidin-4-yl)-1-(3-(3-(1,1-difluoroethyl)-1,2,4-oxadiazol-5-yl)acryloyl)piperazin-2-yl)acetonitrile] | 10 to 100 nM | 10 to 100 nM |  |  |
| Cc1noc(/C=C/C(=O)N2CCN(c3nc(OC[C@@]45CCCN4C[C@H](F)C5)nc4c3CCN(c3cccc5ccc(F)c(Cl)c35)C4)C[C@@H]2CC#N)n1 [Example 3, 2-((S)-4-(7-(8-chloro-7-fluoronaphthalen-1-yl)-2-(((2R,7aS)-2-fluorotetrahydro-1H-pyrrolizin-7a(5H)-yl)methoxy)-5,6,7,8-tetrahydropyrido[3,4-d]pyrimidin-4-yl)-1-((E)-3-(3-methyl-1,2,4-oxadiazol-5-yl)acryloyl)piperazin-2-yl)acetonitrile] | 10 to 100 nM | < 10 nM |  |  |
| C#Cc1c(F)ccc2cccc(-c3ncc4c(N5CCN(C(=O)/C=C/CN6[C@@H]7CC[C@H]6COC7)[C@@H](CC#N)C5)nc(OC[C@@]56CCCN5C[C@H](F)C6)nc4c3F)c12 [Compound 107, 2-((S)-1-((E)-4-((1R,5S)-3-oxa-8-azabicyclo[3.2.1]octan-8-yl)but-2-enoyl)-4-(7-(8-ethynyl-7-fluoronaphthalen-1-yl)-8-fluoro-2-(((2R,7aS)-2-fluorotetrahydro-1H-pyrrolizin-7a(5H)-yl)methoxy)pyrido[4,3-d]pyrimidin-4-yl)piperazin-2-yl)acetonitrile] | < 10 nM |  | 2.93 | 132 µg/mL (≈ 170 µM) |
| N#CC[C@H]1CN(c2nc(OC[C@@]34CCCN3C[C@H](F)C4)nc3c(F)c(-c4cccc(Cl)c4C(F)(F)F)ncc23)CCN1C(=O)/C=C/CN1C[C@H]2C[C@@H]1CO2 [Compound 294] | < 10 nM |  | 2.59 | 127 µg/mL (≈ 165 µM) |
| N#CC[C@H]1CN(c2nc(OC[C@@]34CCCN3C[C@H](F)C4)nc3c(F)c(-c4cccc(Cl)c4C4CC4)ncc23)CCN1C(=O)/C=C/CN1CC2CCC(C1)O2 [Compound 261] | 10 to 100 nM |  | 3.14 | 56.7 µg/mL (≈ 74.7 µM) |
| N#CC[C@H]1CN(c2nc(OC[C@@]34CCCN3C[C@H](F)C4)nc3c(F)c(-c4cccc(F)c4C(F)(F)F)ncc23)CCN1C(=O)/C=C/CN1[C@@H]2CC[C@H]1COC2 [Compound 292] | < 10 nM |  | 2.54 | 112 µg/mL (≈ 145 µM) |

More lines, main results first:

| IC50 [1] | IC50 [2] | Compound | logD [3] | solubility kinetic at 2 h [4] |
| --- | --- | --- | --- | --- |
| < 10 nM | < 10 nM | CC(F)(F)c1noc(/C=C/C(=O)N2CCN(c3nc(OC[C@@]45CCCN4C[C@H](F)C5)nc4c3CCN(c3cccc5cccc(Cl)c35)C4)C[C@@H]2CC#N)n1 [Example 12, 2-((S)-4-(7-(8-chloronaphthalen-1-yl)-2-(((2R,7aS)-2-fluorohexahydro-1H-pyrrolizin-7a-yl)methoxy)-5,6,7,8-tetrahydropyrido[3,4-d]pyrimidin-4-yl)-1-((E)-3-(3-(1,1-difluoroethyl)-1,2,4-oxadiazol-5-yl)acryloyl)piperazin-2-yl)acetonitrile] |  |  |
| < 10 nM | < 10 nM | CC1(C)CN(C/C=C/C(=O)N2CCN(c3nc(OCC45CCCN4CCC5)nc4c3CCN(c3cccc5cccc(Cl)c35)C4)C[C@@H]2CC#N)CCO1 [Compound 165] |  |  |
| < 10 nM | < 10 nM | CO[C@@H]1CCN(C/C=C/C(=O)N2CCN(c3nc(OC[C@@]45CCCN4C[C@H](F)C5)nc4c(F)c(-c5cccc6ccc(F)c(F)c56)ncc34)C[C@@H]2CC#N)C1 [Compound 216] |  |  |
| < 10 nM | < 10 nM | CCc1nccc(/C=C/C(=O)N2CCN(c3nc(OC[C@@]45CCCN4C[C@H](F)C5)nc4c(F)c(-c5cccc6cccc(Cl)c56)ncc34)C[C@@H]2CC#N)n1 [Compound 150] |  |  |
| < 10 nM | < 10 nM | Cc1cc(/C=C/C(=O)N2CCN(c3nc(OC[C@@]45CCCN4C[C@H](F)C5)nc4c(F)c(-c5cccc6cccc(Cl)c56)ncc34)C[C@@H]2CC#N)nc(C)n1 [Example 69, 2-((S)-4-(7-(8-chloronaphthalen-1-yl)-8-fluoro-2-(((2R,7aS)-2-fluorotetrahydro-1H-pyrrolizin-7a(5H)-yl)methoxy)pyrido[4,3-d]pyrimidin-4-yl)-1-((E)-3-(2,6-dimethylpyrimidin-4-yl)acryloyl)piperazin-2-yl)acetonitrile] |  |  |
| < 10 nM | < 10 nM | N#CC[C@H]1CN(c2nc(OC[C@@]34CCCN3C[C@H](F)C4)nc3c(F)c(-c4cccc(Cl)c4C4CC4)ncc23)CCN1C(=O)/C=C/CN1CC[C@H](F)C1 [Compound 283] |  |  |
| < 10 nM | < 10 nM | N#CC[C@H]1CN(c2nc(OC[C@@]34CCCN3C[C@H](F)C4)nc3c(F)c(-c4cccc5cccc(Cl)c45)ncc23)CCN1C(=O)/C=C/CN1C[C@H]2C[C@@H]1CO2 [Compound 181] |  |  |
| < 10 nM | < 10 nM | Cc1nccc(/C=C/C(=O)N2CCN(c3nc(OC[C@@]45CCCN4C[C@H](F)C5)nc4c(F)c(-c5cccc6ccc(F)c(F)c56)ncc34)C[C@@H]2CC#N)n1 [Compound 211] |  |  |
| < 10 nM | < 10 nM | C[C@H]1CN(C/C=C/C(=O)N2CCN(c3nc(OC[C@@]45CCCN4C[C@H](F)C5)nc4c(F)c(-c5cccc6ccc(F)c(Cl)c56)ncc34)C[C@@H]2CC#N)C[C@H](C)O1 [Example 75, 2-((S)-4-(7-(8-chloro-7-fluoronaphthalen-1-yl)-8-fluoro-2-(((2R,7aS)-2-fluorotetrahydro-1H-pyrrolizin-7a(5H)-yl)methoxy)pyrido[4,3-d]pyrimidin-4-yl)-1-((E)-4-((2S,6S)-2,6-dimethylmorpholino)but-2-enoyl)piperazin-2-yl)acetonitrile] |  |  |
| < 10 nM | < 10 nM | N#CC[C@H]1CN(c2nc(OCC34CCCN3CCC4)nc3c2CCN(c2cccc4cccc(Cl)c24)C3)CCN1C(=O)/C=C/CN1CCC(F)(F)CC1 [Compound 159] |  |  |
| < 10 nM | < 10 nM | N#CC[C@H]1CN(c2nc(OC[C@@]34CCCN3C[C@H](F)C4)nc3c(F)c(-c4cccc5cccc(F)c45)ncc23)CCN1C(=O)/C=C/CN1C[C@@H]2C[C@H]1CO2 [Compound 219] |  |  |
| < 10 nM | < 10 nM | CCc1c(F)ccc2cccc(-c3ncc4c(N5CCN(C(=O)/C=C/c6ccnc(C)n6)[C@@H](CC#N)C5)nc(OC[C@@]56CCCN5C[C@H](F)C6)nc4c3F)c12 [Compound 227] |  |  |
